Test results: patent US11351178B2, “Selective HDAC6 inhibitors” (ITALFARMACO S.P.A., priority 2017, dated 2022)

Legend:
HDAC2 = target: T1, HDAC2 (Homo sapiens, UniProt Q92769); test: Enzymatic test HDAC2; type: biochemical; conditions: Table 3
T1 construct: purchased BPS 50002

HDAC9 = target: T2, HDAC9 (Homo sapiens, UniProt Q9UKV0); test: Enzymatic test HDAC9; type: biochemical; conditions: Table 3
T2 construct: purchased BPS 50009
Experimental: (§1) After a period of incubation at 30° C. (incubation times vary for different isoforms and are shown in table 1) 25 μL of solution containing the substrate were added. As substrate, FLUOR DE LYS® deacetylase substrate (Enzo Life Sciences, cat #BML-K1104, FdL), FLUOR DE LYS®-Green substrate (Enzo Life Sciences, cat #BML-K1572 FdL_G) and trifluoroacetyl-L-lysine (Tfal)-2× concentrated solution in 25 mM Tris-HCl, pH 8, 130 mM NaCl 0.05% Tween-20 10% glycerol) were used. Following a reaction period at 30° C.

HDAC11 = target: T3, HDAC11 (Homo sapiens, UniProt Q96DB2); test: Enzymatic test HDAC11; type: biochemical; conditions: Table 3
T3 construct: purchased BML SE560
T3 sequence (Q96DB2 1-347): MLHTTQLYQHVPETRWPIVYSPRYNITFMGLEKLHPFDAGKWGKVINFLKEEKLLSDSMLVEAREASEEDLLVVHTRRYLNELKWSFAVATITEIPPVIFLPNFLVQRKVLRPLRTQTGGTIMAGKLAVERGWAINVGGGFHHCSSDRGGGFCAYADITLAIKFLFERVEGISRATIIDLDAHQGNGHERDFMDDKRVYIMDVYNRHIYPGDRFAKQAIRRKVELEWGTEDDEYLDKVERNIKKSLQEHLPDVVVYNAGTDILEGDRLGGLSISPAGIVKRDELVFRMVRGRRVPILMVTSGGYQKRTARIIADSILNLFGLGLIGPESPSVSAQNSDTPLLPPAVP
Experimental: as §1

[1] = system: peripheral blood mononuclear cells (PBMCs); test: Cytotoxicity on PBMCs (CellTiter 96); type: cell-based; conditions: PBMC, 72 h; read-out: PBMC TOXICITY (72 h)
Procedure, shortened: (§2)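 Cells seeded (2×10^4/well for 697, 5×10^5/well for PBMCs); compounds added after 24 h at 1–10000 nM (697) or 1.5–10000 nM (PBMCs) and incubated 72 h. Viability read by CellTiter 96 Aqueous One tetrazolium assay of mitochondrial function.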

HDAC10 = target: T4, HDAC10 (Homo sapiens, UniProt Q969S8); test: Enzymatic test HDAC10; type: biochemical; conditions: Table 3
T4 construct: purchased BPS 50010
T4 sequence (Q969S8 1-669): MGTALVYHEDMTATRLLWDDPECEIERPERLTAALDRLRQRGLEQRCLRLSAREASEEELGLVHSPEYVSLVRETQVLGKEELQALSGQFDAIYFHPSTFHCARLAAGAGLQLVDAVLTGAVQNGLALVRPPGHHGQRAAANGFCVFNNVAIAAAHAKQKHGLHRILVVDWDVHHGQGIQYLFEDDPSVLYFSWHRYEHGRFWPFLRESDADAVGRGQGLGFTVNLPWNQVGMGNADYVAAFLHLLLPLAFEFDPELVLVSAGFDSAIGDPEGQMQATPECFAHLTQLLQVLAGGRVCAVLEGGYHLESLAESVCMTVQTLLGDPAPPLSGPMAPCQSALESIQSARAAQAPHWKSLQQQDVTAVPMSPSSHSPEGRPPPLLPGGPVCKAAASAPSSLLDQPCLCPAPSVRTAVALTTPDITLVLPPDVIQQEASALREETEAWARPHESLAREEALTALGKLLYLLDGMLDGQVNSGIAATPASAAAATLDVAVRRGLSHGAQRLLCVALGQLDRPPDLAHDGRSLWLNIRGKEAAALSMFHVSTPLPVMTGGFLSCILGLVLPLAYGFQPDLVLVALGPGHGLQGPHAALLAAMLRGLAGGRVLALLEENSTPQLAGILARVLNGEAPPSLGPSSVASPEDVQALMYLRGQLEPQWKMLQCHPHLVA

recombinant human HDAC3 = target: T5, recombinant human HDAC3 (Homo sapiens, UniProt O15379); test: Enzymatic screening on recombinant human HDAC3; type: biochemical; conditions: Table 3
T5 construct: purchased BPS 50003
Experimental: Enzymatic activity on recombinant human HDAC6 and HDAC3 was evaluated (Table 2) for each synthesized compound.
as §1

HDAC8 = target: T6, HDAC8 (Homo sapiens, UniProt Q9BY41); test: Enzymatic test HDAC8; type: biochemical; conditions: Table 3
T6 construct: purchased BPS 50008
T6 sequence (Q9BY41 1-377): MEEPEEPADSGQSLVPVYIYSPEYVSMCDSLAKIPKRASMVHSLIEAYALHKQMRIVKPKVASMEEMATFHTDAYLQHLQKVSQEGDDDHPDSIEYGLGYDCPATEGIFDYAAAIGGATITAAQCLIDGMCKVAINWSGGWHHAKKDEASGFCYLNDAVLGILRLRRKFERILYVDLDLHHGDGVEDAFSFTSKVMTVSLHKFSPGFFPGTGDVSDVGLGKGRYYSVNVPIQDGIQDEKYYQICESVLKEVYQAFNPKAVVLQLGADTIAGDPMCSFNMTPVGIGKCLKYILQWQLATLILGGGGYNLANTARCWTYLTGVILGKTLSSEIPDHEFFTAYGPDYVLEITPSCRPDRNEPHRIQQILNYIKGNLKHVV

HDAC5 = target: T7, HDAC5 (Homo sapiens, UniProt Q9UQL6); test: Enzymatic test HDAC5; type: biochemical; conditions: Table 3
T7 construct: purchased BPS 50005
Experimental: as §1

HDAC7 = target: T8, HDAC7 (Homo sapiens, UniProt Q8WUI4); test: Enzymatic test HDAC7; type: biochemical; conditions: Table 3
T8 construct: purchased BPS 50007
T8 sequence (Q8WUI4 518-952 limits assumed): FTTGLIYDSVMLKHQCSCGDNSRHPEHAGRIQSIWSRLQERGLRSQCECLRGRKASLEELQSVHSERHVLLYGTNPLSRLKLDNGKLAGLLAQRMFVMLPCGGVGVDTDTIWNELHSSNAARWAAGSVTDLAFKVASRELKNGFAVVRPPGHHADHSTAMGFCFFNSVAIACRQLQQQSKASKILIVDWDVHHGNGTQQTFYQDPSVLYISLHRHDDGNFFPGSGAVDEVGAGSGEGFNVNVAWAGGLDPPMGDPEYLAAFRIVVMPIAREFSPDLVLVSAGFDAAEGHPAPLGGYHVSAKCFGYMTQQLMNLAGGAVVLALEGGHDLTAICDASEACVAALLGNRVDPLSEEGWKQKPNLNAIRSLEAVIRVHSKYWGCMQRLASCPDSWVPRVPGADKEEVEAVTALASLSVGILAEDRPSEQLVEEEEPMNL
Experimental: as §1

[2] = system: B 697 promyelocytic cell line; test: Cytotoxicity on 697 cell line (CellTiter 96); type: cell-based; conditions: 72 hours incubation, read-out: 697 TOXICITY
Procedure, shortened: as §2

T5 sequence (O15379 whole entry): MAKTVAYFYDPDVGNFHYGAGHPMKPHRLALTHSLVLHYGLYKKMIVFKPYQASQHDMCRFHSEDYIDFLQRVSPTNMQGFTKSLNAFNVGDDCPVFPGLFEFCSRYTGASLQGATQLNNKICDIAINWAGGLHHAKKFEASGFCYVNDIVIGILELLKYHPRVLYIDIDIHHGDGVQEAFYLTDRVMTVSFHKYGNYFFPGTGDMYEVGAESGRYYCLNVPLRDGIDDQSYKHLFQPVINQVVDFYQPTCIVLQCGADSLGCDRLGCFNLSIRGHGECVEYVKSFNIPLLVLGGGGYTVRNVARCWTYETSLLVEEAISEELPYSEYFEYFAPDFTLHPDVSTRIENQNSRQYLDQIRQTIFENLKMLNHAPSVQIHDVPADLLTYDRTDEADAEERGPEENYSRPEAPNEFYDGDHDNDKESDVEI
T5 sequence (Q9Y618 395-489 partner limits assumed): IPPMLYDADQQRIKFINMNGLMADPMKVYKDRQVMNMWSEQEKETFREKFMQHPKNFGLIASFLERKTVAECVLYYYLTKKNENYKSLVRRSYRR
T7 sequence (Q9UQL6 656-1122 limits assumed): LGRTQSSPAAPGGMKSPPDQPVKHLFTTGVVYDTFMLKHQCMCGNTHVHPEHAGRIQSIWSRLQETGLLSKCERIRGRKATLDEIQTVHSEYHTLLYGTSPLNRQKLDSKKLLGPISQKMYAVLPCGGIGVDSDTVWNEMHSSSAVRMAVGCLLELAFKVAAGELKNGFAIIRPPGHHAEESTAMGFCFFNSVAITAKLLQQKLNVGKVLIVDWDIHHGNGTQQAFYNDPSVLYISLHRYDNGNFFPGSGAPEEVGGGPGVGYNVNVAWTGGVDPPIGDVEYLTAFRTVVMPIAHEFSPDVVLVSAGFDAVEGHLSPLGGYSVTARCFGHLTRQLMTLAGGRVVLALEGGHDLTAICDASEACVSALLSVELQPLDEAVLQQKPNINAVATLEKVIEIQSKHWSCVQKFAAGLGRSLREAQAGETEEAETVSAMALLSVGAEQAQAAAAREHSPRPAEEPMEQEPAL
T1 sequence (Q92769 whole entry): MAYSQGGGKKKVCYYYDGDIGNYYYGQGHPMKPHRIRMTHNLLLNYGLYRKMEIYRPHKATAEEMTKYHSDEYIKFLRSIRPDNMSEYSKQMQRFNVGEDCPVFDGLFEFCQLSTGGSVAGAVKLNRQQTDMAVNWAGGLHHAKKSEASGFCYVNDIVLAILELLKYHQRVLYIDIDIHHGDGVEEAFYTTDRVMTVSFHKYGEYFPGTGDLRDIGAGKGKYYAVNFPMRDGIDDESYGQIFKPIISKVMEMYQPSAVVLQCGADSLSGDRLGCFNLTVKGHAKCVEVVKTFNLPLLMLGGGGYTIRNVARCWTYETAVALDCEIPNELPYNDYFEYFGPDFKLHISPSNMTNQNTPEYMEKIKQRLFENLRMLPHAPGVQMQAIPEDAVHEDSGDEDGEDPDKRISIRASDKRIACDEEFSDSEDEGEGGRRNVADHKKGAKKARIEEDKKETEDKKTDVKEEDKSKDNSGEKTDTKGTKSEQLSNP
T2 sequence (Q9UKV0 1-1066 isoform Q9UKV0-5): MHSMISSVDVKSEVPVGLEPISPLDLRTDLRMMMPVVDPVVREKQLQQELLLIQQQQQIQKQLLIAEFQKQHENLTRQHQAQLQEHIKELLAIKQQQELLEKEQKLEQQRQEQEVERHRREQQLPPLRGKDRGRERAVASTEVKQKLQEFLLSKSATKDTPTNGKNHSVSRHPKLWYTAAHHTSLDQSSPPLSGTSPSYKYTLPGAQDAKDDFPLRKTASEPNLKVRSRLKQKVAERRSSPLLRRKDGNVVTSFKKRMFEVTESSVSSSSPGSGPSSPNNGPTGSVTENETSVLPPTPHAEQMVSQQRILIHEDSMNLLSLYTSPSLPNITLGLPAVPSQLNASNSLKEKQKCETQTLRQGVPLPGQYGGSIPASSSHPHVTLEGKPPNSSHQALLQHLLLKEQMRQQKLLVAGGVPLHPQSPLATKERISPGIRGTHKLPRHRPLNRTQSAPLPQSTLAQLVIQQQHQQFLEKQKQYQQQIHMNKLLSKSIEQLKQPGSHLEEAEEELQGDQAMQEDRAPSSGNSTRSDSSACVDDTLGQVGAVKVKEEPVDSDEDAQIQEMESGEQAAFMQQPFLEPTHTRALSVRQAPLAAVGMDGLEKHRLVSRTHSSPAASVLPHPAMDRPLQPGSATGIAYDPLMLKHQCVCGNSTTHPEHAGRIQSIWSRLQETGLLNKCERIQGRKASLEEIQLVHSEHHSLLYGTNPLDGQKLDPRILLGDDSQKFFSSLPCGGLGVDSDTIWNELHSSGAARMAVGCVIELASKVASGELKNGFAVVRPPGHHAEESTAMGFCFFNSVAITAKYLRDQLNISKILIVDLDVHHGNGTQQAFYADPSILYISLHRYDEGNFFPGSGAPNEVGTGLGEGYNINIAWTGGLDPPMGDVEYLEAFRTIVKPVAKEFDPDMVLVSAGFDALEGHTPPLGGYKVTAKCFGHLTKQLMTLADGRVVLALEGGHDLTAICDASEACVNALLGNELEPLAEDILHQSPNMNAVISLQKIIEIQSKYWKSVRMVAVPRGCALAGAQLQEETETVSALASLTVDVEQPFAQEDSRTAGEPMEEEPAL

SMILES | IC50 (HDAC2) [µM] | IC50 (HDAC9) [µM] | IC50 (HDAC11) [µM] | IC50 [1] [µM] | IC50 (HDAC10) [µM] | IC50 (recombinant human HDAC3) [µM] | IC50 (HDAC8) [µM] | IC50 (HDAC5) [µM] | IC50 (HDAC7) [µM] | IC50 [2] [µM]
COc1ccc(C(=O)N[C@@H](Cc2cscn2)c2nc(Cc3ccc(C(=O)NO)cc3)no2)cc1OC [comp. 1, (S)—N-(1-(3-(4-(hydroxycarbamoyl)benzyl)-1,2,4-oxadiazol-5-yl)-2-(thiazol-4-yl)ethyl)-3,4-dimethoxybenzamide] | 6.66 | 5.87 | 2.68 | 7 | 2.48 | 2.87 | 0.71 | 12 | 3.53 | 10.4
O=C(NO)c1cc(F)c(Cn2nnc(-c3ccccn3)n2)c(F)c1 [comp. 6, 3,5-difluoro-N-hydroxy-4-((5-(pyridin-2-yl)-2H-tetrazol-2-yl)methyl)benzamide] | 27.5 | 0.756 | 5.17 | 20 | 10.9 | 7.26 | 1.02 | 1.05 | 0.75 | > 10
Cn1c(Sc2ccc(C(=O)NO)cc2)nnc1-c1cccs1 [comp. 10, N-hydroxy-4-((4-methyl-5-(thiophen-2-yl)-4H-1,2,4-triazol-3-yl)thio)benzamide] | 4.45 | 1.08 | 0.981 | 4.5 | 2.82 | 0.487 | 0.506 | 2.68 | 0.817 | 4.33
Cn1c(Sc2c(F)cc(C(=O)NO)cc2F)nnc1-c1cccs1 [comp. 17, 3,5-difluoro-N-hydroxy-4-((4-methyl-5-(thiophen-2-yl)-4H-1,2,4-triazol-3-yl)thio)benzamide] | 16 | 0.496 | 2.29 | 9 | 6.86 | 2.83 | 0.193 | 1.54 | 0.55 | 5.2
O=C(NO)c1cc(F)c(Cn2nnc(-c3ccco3)n2)c(F)c1 [comp. 19, 3,5-difluoro-4-((5-(furan-2-yl)-2H-tetrazol-2-yl)methyl)-N-hydroxybenzamide] | 9.48 | 0.592 | 0.798 | > 10 | 2.7 | 2.64 | 0.647 | 0.597 | 1.02 | 1.16
CN(C)c1cccc(-c2nnc(Sc3ccc(C(=O)NO)cc3)n2C)c1 [comp. 77, 4-[[5-[3-(dimethylamino)phenyl]-4-methyl-1,2,4-triazol-3-yl]sulfanyl]benzenecarbohydroxamic acid] | 5.23 | 1.73 | 1.44 | 2 | 2.81 | 1.15 | 0.795 | 4.47 | 1.36 | 11.1
Cc1cc(-c2nnc(Sc3ccc(C(=O)NO)cc3)n2C)nn1C [comp. 85, 4-[[5-(1,5-dimethylpyrazol-3-yl)-4-methyl-1,2,4-triazol-3-yl]sulfanyl]benzenecarbohydroxamic acid] | 1.7 | 0.452 | 0.557 | 2 | 0.954 | 0.339 | 0.216 | 0.559 | 0.514 | 1.16
Cn1c(Sc2c(F)cc(C(=O)NO)cc2F)nnc1C(c1ccccc1)c1ccccc1 [comp. 98, 4-[(5-benzhydryl-4-methyl-1,2,4-triazol-3-yl)sulfanyl]-3,5-difluoro-benzenecarbohydroxamic acid] | 4.24 | 0.844 | 2.09 | – | 1.48 | 8.93 | 0.186 | 2.66 | 1.99 | –
